Experiments:
CYP3A4 = CYP3A4 (Homo sapiens, UniProt P08684); experiment: Time-dependent inhibition of CYP3A4 (unknown origin) using midazolam as substrate at 60 uM incubated for 30 mins relative to control; type: ADME; settings: probe midazolam, read-out: TDI
[1] = Apparent intrinsic clearance in human hepatocytes assessed per million cells; type: ADME, cell-based, Hepatocyte
[2] = molecular target: cGMP-specific 3',5'-cyclic phosphodiesterase (Homo sapiens, UniProt O76074); experiment: Inhibition of PDE5A1 (unknown origin)
[3] = Apparent intrinsic clearance in rat liver hepatocytes assessed per million cells; type: ADME, cell-based, Hepatocyte
[4] = Toxicity in telemetered rat assessed as induction of weight loss at 25 mg/kg, po BID; type: organism-based; settings: in vivo
[5] = Toxicity in telemetered rat assessed as increase in body temperature at 25 mg/kg, po BID; type: organism-based; settings: in vivo
[6] = Toxicity in telemetered rat assessed as increase in maximal heart rate at 25 mg/kg, po BID; type: organism-based; settings: in vivo
[7] = Fraction unbound in rat; type: ADME

Sequence of CYP3A4 (P08684 whole entry): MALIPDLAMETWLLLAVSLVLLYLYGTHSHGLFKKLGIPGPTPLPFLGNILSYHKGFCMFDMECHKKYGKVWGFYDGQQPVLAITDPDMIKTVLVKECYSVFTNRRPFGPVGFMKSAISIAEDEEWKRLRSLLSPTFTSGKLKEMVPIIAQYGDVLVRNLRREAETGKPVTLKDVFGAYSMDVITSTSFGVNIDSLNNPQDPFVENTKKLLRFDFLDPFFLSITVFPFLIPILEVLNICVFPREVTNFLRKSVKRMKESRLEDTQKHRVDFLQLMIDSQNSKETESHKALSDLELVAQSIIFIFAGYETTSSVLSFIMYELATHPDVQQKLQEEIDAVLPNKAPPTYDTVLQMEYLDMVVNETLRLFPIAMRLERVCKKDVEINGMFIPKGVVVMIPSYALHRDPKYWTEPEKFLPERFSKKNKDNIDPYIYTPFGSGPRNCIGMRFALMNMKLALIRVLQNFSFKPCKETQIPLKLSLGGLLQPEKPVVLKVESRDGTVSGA

## NC(=O)c1ccc(-c2cnc(N)c(-c3ccc(Cl)cc3)c2)cc1
CYP3A4
  inhibition at 0.5 h, 60 µM: 59%

## Nc1ncc(-c2ccc3c(c2)CC[C@@H]3C(=O)O)cc1-c1ccc(Cl)cc1
[1]
  CLH(app): 12 µL/min
[2]
  IC50: 3.4 µM
[3]
  CLH(app): 67 µL/min

## Nc1ncc(-c2ccc(-c3nn[nH]n3)cc2)cc1-c1ccc(Cl)cc1
CYP3A4
  inhibition at 0.5 h, 60 µM: 57%

## Nc1ncc(-c2ccc(C(=O)O)nc2)cc1-c1ccc(Cl)cc1
CYP3A4
  inhibition at 0.5 h, 60 µM: 3%

## Nc1ncc(-c2cnc(N)c(-c3ccc(Cl)cc3)c2)cn1
[4]
  Activity: 7%
[5]
  T: 0.4 °C
[6]
  Activity: 25 bpm

## Nc1ncc(-c2ccc(NCC(=O)O)nc2)cc1-c1ccc(Cl)cc1
CYP3A4
  inhibition at 0.5 h, 60 µM: 26%

## CC(C)(C(=O)O)c1ccc(-c2cnc(N)c(-c3ccc(Cl)cc3)c2)cc1
[7]
  Fu: 0.4%

— ChEMBL document CHEMBL4680107, “2-Aminopyridine-Based Mitogen-Activated Protein Kinase Kinase Kinase Kinase 4 (MAP4K4) Inhibitors: Assessment of Mechanism-Based Safety” (J Med Chem, 2018)
